Target: T1, RIPK2 enzyme (Homo sapiens, UniProt O43353)
T1 construct: purchased Carna 09-128
Assay: RIPK2 inhibition (ADP-Glo Kinase Assay)
Format: biochemical
Details: RIPK2 5 nM, ATP 150 μM, MBP substrate, read-out: RIPK2 IC50
Procedure, shortened: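 Swine MBP substrate; compound and 5 nM RIPK2 first mixed for 30 min at room temperature; buffer pH 7.5 HEPES 50 mM with 10 mM MgCl2, 2 mM DTT, 1 mM EGTA, Brij-35, BSA.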

T1 sequence (O43353 1-299 limits assumed): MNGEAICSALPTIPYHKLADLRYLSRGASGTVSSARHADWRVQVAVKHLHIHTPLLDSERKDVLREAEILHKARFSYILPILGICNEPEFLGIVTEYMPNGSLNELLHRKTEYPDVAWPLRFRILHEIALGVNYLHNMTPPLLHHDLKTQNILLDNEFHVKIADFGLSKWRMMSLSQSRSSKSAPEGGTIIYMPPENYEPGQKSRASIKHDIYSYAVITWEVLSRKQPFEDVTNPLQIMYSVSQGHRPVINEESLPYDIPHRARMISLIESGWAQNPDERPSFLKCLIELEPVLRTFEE

SMILES | IC50
Cc1cc(CC(=O)Nc2cnn(C(C)(C)C)c2)ccc1Oc1ccnc2ccc(S(=O)(=O)N(C)CCO)cc12 [Compound 262, N-(1-(tert-butyl)-1H-pyrazol-4-yl)-2-(4-((6-(N-(2-hydroxyethyl)-N-methylsulfamoyl)quinolin-4-yl)oxy)-3-methylphenyl)acetamide] | < 2.5 nM
COCCN(C)S(=O)(=O)c1ccc2nccc(Oc3ccc(CC(=O)Nc4cnn(C(C)(C)C)c4)cc3C)c2c1 [Compound 263, N-(1-(tert-butyl)-1H-pyrazol-4-yl)-2-(4-((6-(N-(2-methoxyethyl)-N-methylsulfamoyl)quinolin-4-yl)oxy)-3-methylphenyl)acetamide] | < 2.5 nM
Cc1cc(CC(=O)Nc2cnn(C(C)(C)C)c2)ccc1Oc1ccnc2ccc(NS(C)(=O)=O)cc12 [Compound 264, N-(1-(tert-butyl)-1H-pyrazol-4-yl)-2-(3-methyl-4-((6-(methylsulfonamido)quinolin-4-yl)oxy)phenyl) acetamide] | < 2.5 nM
Cc1cc(CC(=O)Nc2cnn(C(C)(C)C)c2)ccc1Oc1ccnc2ccc(N(C)S(C)(=O)=O)cc12 [Compound 265, N-(1-(tert-butyl)-1H-pyrazol-4-yl)-2-(3-methyl-4-((6-(N-methylmethyl-sulfonamido)quinolin-4-yl)oxy)phenyl) acetamide] | < 2.5 nM
Cc1cc(CC(=O)Nc2cnn(C(C)(C)C)c2)ccc1Oc1ccnc2ccc(N3CCCS3(=O)=O)cc12 [Compound 266, N-(1-(tert-butyl)-1H-pyrazol-4-yl)-2-(4-((6-(1,1-dioxidoisothiazolidin-2-yl)quinolin-4-yl)oxy)-3-methylphenyl) acetamide] | < 2.5 nM
Cc1c(Oc2ccnc3ccc(S(N)(=O)=O)cc23)ccc(CC(=O)Nc2cnn(C(C)(C)C)c2)c1F [Compound 267, N-(1-(tert-butyl)-1H-pyrazol-4-yl)-2-(2-fluoro-3-methyl-4-((6-sulfamoylquinolin-4-yl)oxy)phenyl)acetamide] | < 2.5 nM
CNS(=O)(=O)c1ccc2nccc(Oc3ccc(CC(=O)Nc4cnn(C(C)(C)C)c4)c(F)c3C)c2c1 [Compound 268, N-(1-(tert-butyl)-1H-pyrazol-4-yl)-2-(2-fluoro-3-methyl-4-((6-(N-methylsulfamoyl)quinolin-4-yl)oxy)phenyl)acetamide] | < 2.5 nM
Cc1c(Oc2ccnc3ccc(S(=O)(=O)N(C)C)cc23)ccc(CC(=O)Nc2cnn(C(C)(C)C)c2)c1F [Compound 269, N-(1-(tert-butyl)-1H-pyrazol-4-yl)-2-(4-((6-(N,N-dimethylsulfamoyl)quinolin-4-yl)oxy)-2-fluoro-3-methylphenyl)acetamide] | < 2.5 nM
Cc1c(Oc2ccnc3ccc(S(=O)(=O)N4CCCC4)cc23)ccc(CC(=O)Nc2cnn(C(C)(C)C)c2)c1F [Compound 270, N-(1-(tert-butyl)-1H-pyrazol-4-yl)-2-(2-fluoro-3-methyl-4-((6-(pyrrolidin-1-ylsulfonyl)quinolin-4-yl)oxy)phenyl)acetamide] | < 2.5 nM
Cc1c(Oc2ccnc3ccc(S(=O)(=O)N4CCC4)cc23)ccc(CC(=O)Nc2cnn(C(C)(C)C)c2)c1F [Compound 271, 2-(4-((6-(azetidin-1-ylsulfonyl)quinolin-4-yl)oxy)-2-fluoro-3-methylphenyl)-N-(1-(tert-butyl)-1H-pyrazol-4-yl)acetamide] | < 2.5 nM
Cc1c(Oc2ccnc3ccc(S(=O)(=O)N4CC(F)C4)cc23)ccc(CC(=O)Nc2cnn(C(C)(C)C)c2)c1F [Compound 272, N-(1-(tert-butyl)-1H-pyrazol-4-yl)-2-(2-fluoro-4-((6-((3-fluoroazetidin-1-yl)sulfonyl)quinolin-4-yl)oxy)-3-methylphenyl)acetamide] | < 2.5 nM
Cc1c(Oc2ccnc3ccc(S(=O)(=O)N4CC(C#N)C4)cc23)ccc(CC(=O)Nc2cnn(C(C)(C)C)c2)c1F [Compound 273, N-(1-(tert-butyl)-1H-pyrazol-4-yl)-2-(4-((6-((3-cyanoazetidin-1-yl)sulfonyl)quinolin-4-yl)oxy)-2-fluoro-3-methylphenyl)acetamide] | < 2.5 nM
Cc1c(Oc2ccnc3ccc(S(=O)(=O)N4CCOCC4)cc23)ccc(CC(=O)Nc2cnn(C(C)(C)C)c2)c1F [Compound 274, N-(1-(tert-butyl)-1H-pyrazol-4-yl)-2-(2-fluoro-3-methyl-4-((6-(morpholinosulfonyl)quinolin-4-yl)oxy)phenyl)acetamide] | < 2.5 nM
Cc1c(Oc2ccnc3ccc(S(=O)(=O)N(C)CCO)cc23)ccc(CC(=O)Nc2cnn(C(C)(C)C)c2)c1F [Compound 275, N-(1-(tert-butyl)-1H-pyrazol-4-yl)-2-(2-fluoro-4-((6-(N-(2-hydroxyethyl)-N-methylsulfamoyl)quinolin-4-yl)oxy)-3-methylphenyl)acetamide] | < 2.5 nM
COCCN(C)S(=O)(=O)c1ccc2nccc(Oc3ccc(CC(=O)Nc4cnn(C(C)(C)C)c4)c(F)c3C)c2c1 [Compound 276, N-(1-(tert-butyl)-1H-pyrazol-4-yl)-2-(2-fluoro-4-((6-(N-(2-methoxyethyl)-N-methylsulfamoyl)quinolin-4-yl)oxy)-3-methylphenyl)acetamide] | < 2.5 nM
Cc1c(Oc2ccnc3ccc(NS(C)(=O)=O)cc23)ccc(CC(=O)Nc2cnn(C(C)(C)C)c2)c1F [Compound 277, N-(1-(tert-butyl)-1H-pyrazol-4-yl)-2-(2-fluoro-3-methyl-4-((6-(methylsulfonamido)quinolin-4-yl)oxy)phenyl) acetamide] | < 2.5 nM
Cc1c(Oc2ccnc3ccc(N(C)S(C)(=O)=O)cc23)ccc(CC(=O)Nc2cnn(C(C)(C)C)c2)c1F [Compound 278, N-(1-(tert-butyl)-1H-pyrazol-4-yl)-2-(2-fluoro-3-methyl-4-((6-(N-methylmethyl-sulfonamido)quinolin-4-yl)oxy)phenyl) acetamide] | < 2.5 nM
Cc1c(Oc2ccnc3ccc(N4CCCS4(=O)=O)cc23)ccc(CC(=O)Nc2cnn(C(C)(C)C)c2)c1F [Compound 279, N-(1-(tert-butyl)-1H-pyrazol-4-yl)-2-(4-((6-(1,1-dioxidoisothiazolidin-2-yl)quinolin-4-yl)oxy)-2-fluoro-3-methylphenyl) acetamide] | < 2.5 nM
Cc1cc(CC(=O)Nc2cnn(C(C)(C)C)c2)ccc1Oc1ccnc2ccc(S(=O)(=O)C3CCC3)cc12 [Compound 280, N-(1-(tert-butyl)-1H-pyrazol-4-yl)-2-(4-((6-(cyclobutylsulfonyl)quinolin-4-yl)oxy)-3-methylphenyl)acetamide] | < 2.5 nM
Cc1cc(CC(=O)Nc2cnn(C(C)(C)C)c2)ccc1Oc1ccnc2ccc(S(=O)(=O)C3CC(O)C3)cc12 (stereo not drawn) [Compound 281, N-(1-(tert-butyl)-1H-pyrazol-4-yl)-2-(4-((6-((-3-hydroxycyclobutyl)sulfonyl)quinolin-4-yl)oxy)-3-methylphenyl)acetamide] | < 2.5 nM
Cc1c(Oc2ccnc3ccc(S(=O)(=O)C4CCC4)cc23)ccc(CC(=O)Nc2cnn(C(C)(C)C)c2)c1F [Compound 284, N-(1-(tert-butyl)-1H-pyrazol-4-yl)-2-(4-((6-(cyclobutylsulfonyl)quinolin-4-yl)oxy)-2-fluoro-3-methylphenyl)acetamide] | < 2.5 nM
CC(C)(C)n1cc(NC(=O)Cc2ncc(Oc3ncnc4ccc(O[C@H]5C[C@H]6CC[C@@H](C5)N6)cc34)cc2F)cn1 [Compound 289, 2-(5-((6-(((1R,3r,5S)-8-azabicyclo[3.2.1]octan-3-yl)oxy)quinazolin-4-yl)oxy)-3-fluoropyridin-2-yl)-N-(1-(tert-butyl)-1H-pyrazol-4-yl)acetamide] | 4.3 nM
Cc1cc(CC(=O)Nc2cnn(C(C)(C)C)c2)ccc1Oc1ccnc2ccc(N3CCCC3=O)cc12 [Compound 290, N-(1-(tert-butyl)-1H-pyrazol-4-yl)-2-(3-methyl-4-((6-(2-oxopyrrolidin-1-yl)quinolin-4-yl)oxy)phenyl) acetamide] | < 2.5 nM
Cc1cc(CC(=O)Nc2cnn(C(C)(C)C)c2)ccc1Oc1ccnc2ccc(N3CCOC3=O)cc12 [Compound 293, N-(1-(tert-butyl)-1H-pyrazol-4-yl)-2-(3-methyl-4-((6-(2-oxooxazolidin-3-yl)quinolin-4-yl)oxy)phenyl) acetamide] | < 2.5 nM
Cc1cc(CC(=O)Nc2cnn(C(C)(C)C)c2)ccc1Oc1ccnc2ccc(N3CCOCC3=O)cc12 [Compound 294, N-(1-(tert-butyl)-1H-pyrazol-4-yl)-2-(3-methyl-4-((6-(3-oxomorpholino)quinolin-4-yl)oxy)phenyl) acetamide] | < 2.5 nM
Cc1c(Oc2ccnc3ccc(N4CCCC4=O)cc23)ccc(CC(=O)Nc2cnn(C(C)(C)C)c2)c1F [Compound 295, N-(1-(tert-butyl)-1H-pyrazol-4-yl)-2-(2-fluoro-3-methyl-4-((6-(2-oxopyrrolidin-1-yl)quinolin-4-yl)oxy)phenyl) acetamide] | < 2.5 nM
Cc1c(Oc2ccnc3ccc(N4CCOC4=O)cc23)ccc(CC(=O)Nc2cnn(C(C)(C)C)c2)c1F [Compound 298, N-(1-(tert-butyl)-1H-pyrazol-4-yl)-2-(2-fluoro-3-methyl-4-((6-(2-oxooxazolidin-3-yl)quinolin-4-yl)oxy)phenyl) acetamide] | < 2.5 nM
Cc1c(Oc2ccnc3ccc(P(C)(C)=O)cc23)ccc(CC(=O)Nc2cnn(C(C)(C)C)c2)c1F [Compound 300, N-(1-(tert-butyl)-1H-pyrazol-4-yl)-2-(4-((6-(dimethylphosphoryl)quinolin-4-yl)oxy)-2-fluoro-3-methylphenyl) acetamide] | < 2.5 nM
CCP(=O)(CC)c1ccc2nccc(Oc3ccc(CC(=O)Nc4cnn(C(C)(C)C)c4)c(F)c3C)c2c1 [Compound 301, N-(1-(tert-butyl)-1H-pyrazol-4-yl)-2-(4-((6-(diethylphosphoryl)quinolin-4-yl)oxy)-2-fluoro-3-methylphenyl) acetamide] | < 2.5 nM
Cc1c(Oc2ccnc3ccc(C(C)(C)O)cc23)ccc(CC(=O)Nc2cnn(C(C)(C)C)c2)c1F [Compound 302, N-(1-(tert-butyl)-1H-pyrazol-4-yl)-2-(2-fluoro-4-((6-(2-hydroxypropan-2-yl)quinolin-4-yl)oxy)-3-methylphenyl)acetamide] | < 2.5 nM
